Source: article PMC7155171, “Probing the Open Global Health Chemical Diversity Library for Multistage-Active Starting Points for Next-Generation Antimalarials” (ACS Infectious Diseases, 2020)
pIC50: −log10 of the molar value. Where two headings read alike, the source gives them in different places.

Legend:
Type in all cases: cell-based, Plasmodium falciparum
[1] = test system: P. falciparum Dd2 (PfLuc) line expressing firefly luciferase, asexual blood stage; assay: microbe, parasite or virus in culture; details: Plasmodium falciparum; for IC50: DD2, read-out: CDD P. falciparum Luciferase ABS 11-pt Reconfirmation Dose Response (48hr): IC50 (μM)
[2] = test system: P. falciparum (NF54) stage V gametocytes; assay: Stage V gametocyte viability assay (MitoTracker Red CMXRos high content imaging); details: Plasmodium falciparum; for inhibition at 2 µM: read-out: Stg V Gam primary screen: Inhibition % (2uM) (n=2)
P. falciparum Dd2 = assay: SYBR green I asexual blood stage proliferation assay (96 h); details: Plasmodium falciparum, DD2, 11-pt dose response, 96hr
[3] = DD2, 8-pt dose response, 96hr, read-out: CDD P. falciparum Luciferase ABS 8-pt Reconfirmation Dose Response (96hr): IC50
[4] = DD2, 8-pt dose response, 96hr, read-out: CDD P. falciparum Luciferase ABS 8-pt Reconfirmation Dose Response (96hr): Maximum inhibition (%)
[5] = DD2, 11-pt dose response, 48hr, read-out: CDD P. falciparum Luciferase ABS 11-pt Reconfirmation Dose Response (48hr): Maximum inhibition (%)
[6] = DD2, 11-pt dose response, 96hr, read-out: CDD P. falciparum Luciferase ABS 11-pt Reconfirmation Dose Response (96hr): IC50
[7] = DD2, 11-pt dose response, 96hr, read-out: CDD P. falciparum Luciferase ABS 11-pt Reconfirmation Dose Response (96hr): Maximum inhibition (%)
[8] = NF54, 72 h, read-out: Stg V Gam dose response IC50 (µM) (n=3), 10-point dose response, n=3, 72 h
[9] = Sybr Green I, read-out: CDD P. falciparum Sybr Green I ABS 11-pt Reconfirmation Dose Response (96hr): IC50
[10] = Sybr Green I, read-out: CDD P. falciparum Sybr Green I ABS 11-pt Reconfirmation Dose Response (96hr): Maximum inhibition (%)
[11] = DD2, read-out: P. falciparum Luciferase ABS 11-pt Reconfirmation Dose Response (48hr): IC50, 11-pt dose response, 48hr
[12] = DD2, 8-pt dose response, 96hr, read-out: P. falciparum Luciferase ABS 8-pt Reconfirmation Dose Response (96hr): IC50
[13] = DD2, 8-pt dose response, 96hr, read-out: P. falciparum Luciferase ABS 8-pt Reconfirmation Dose Response (96hr): Maximum inhibition (%)
[14] = DD2, 11-pt dose response, 96hr, read-out: P. falciparum Luciferase ABS 11-pt Reconfirmation Dose Response (96hr): IC50
[15] = DD2, 11-pt dose response, 96hr, read-out: P. falciparum Luciferase ABS 11-pt Reconfirmation Dose Response (96hr): Maximum inhibition (%)
[16] = NF54, 72 h, read-out: GAM V IC50, stage V gametocytes, 72 h
[17] = read-out: P. falciparum Sybr Green I ABS 11-pt Reconfirmation Dose Response (96hr): IC50
[18] = read-out: P. falciparum Sybr Green I ABS 11-pt Reconfirmation Dose Response (96hr): Maximum inhibition (%)

Work on `CN(CCO)Cc1cc(Cl)ccc1OCC(O)CN1CCCCCC1` (stereo not shown) [DDD01243745, CN(CCO)CC1=CC(Cl)=CC=C1OCC(O)CN1CCCCCC1] yielded an IC50 ([1]; 11-pt dose response, 48hr) of 2.92 µM, a pIC50 [1, 3] of 6.02 and an Emax [1, 4] of 93.5%. For the same compound, the Emax [1, 5] was 97%, the pIC50 [1, 6] was 5.84 and the Emax [1, 7] was 98.8%. It also gave an IC50 [2, 8] of 5.69 µM, an inhibition at 2 µM ([2]; NF54, 72 h) of 54.7% and a pIC50 (P. falciparum Dd2; [9]) of 5.96. The Emax (P. falciparum Dd2; [10]) was 99.1%.
In the case of `OC1(CN2CCC(Oc3cccc(C(F)(F)F)c3)CC2)CCNC1` (stereo not shown) [DDD01245291, OC1(CN2CCC(CC2)OC2=CC=CC(=C2)C(F)(F)F)CCNC1], the IC50 ([1]; 11-pt dose response, 48hr) was 2.08 µM, the pIC50 [1, 3] was 6.06 and the Emax [1, 4] was 93.8%. The Emax [1, 5] was 95.9%, the pIC50 [1, 6] was 6.02 and the Emax [1, 7] was 99.5%. The IC50 [2, 8] was 2.42 µM, the inhibition at 2 µM ([2]; NF54, 72 h) was 50.1% and the pIC50 (P. falciparum Dd2; [9]) was 5.71. It also gave an Emax (P. falciparum Dd2; [10]) of 96.4%.
Compound `CCc1ccc2nc(NCCCN(CCO)CCO)cc(C)c2c1` [DDD01247914, CCC1=CC=C2N=C(NCCCN(CCO)CCO)C=C(C)C2=C1] has an IC50 ([1]; 11-pt dose response, 48hr) of 3.94 µM, a pIC50 [1, 3] of 5.97 and an Emax [1, 4] of 91.1%. For the same compound, the Emax [1, 5] was 92.3%, the pIC50 [1, 6] was 5.77 and the Emax [1, 7] was 99.8%. It also gave an IC50 [2, 8] of 3.72 µM, an inhibition at 2 µM ([2]; NF54, 72 h) of 59.7% and a pIC50 (P. falciparum Dd2; [9]) of 5.44. For the same compound, the Emax (P. falciparum Dd2; [10]) was 94%.
`CCc1[nH]c2c(CNc3cc(C)nc(NC)n3)cc(C)cc2c1C` [DDD01250162, CCC1=C(C)C2=CC(C)=CC(CNC3=CC(C)=NC(NC)=N3)=C2N1] gave a pIC50 [1, 11] of less than 4.90, a pIC50 [1, 12] of 5.88 and an Emax [1, 13] of 92.3%. The Emax ([1]; DD2, 11-pt dose response, 48hr, read-out: P. falciparum Luciferase ABS 11-pt Reconfirmation Dose Response (48hr): Maximum inhibition (%)) was 38.8%, the pIC50 [1, 14] was less than 4.90 and the Emax [1, 15] was 45.4%. For the same compound, the pIC50 [2, 16] was 5.31, the IC50 [2, 8] was 4.9 µM and the inhibition at 2 µM ([2]; NF54, 72 h) was 64.1%. It also gave a pIC50 (P. falciparum Dd2; [17]) of 5.81 and an Emax (P. falciparum Dd2; [18]) of 94.1%.
Work on `CCc1[nH]c2c(CNc3nc(C)cc(NC)n3)cc(C)cc2c1C` [DDD01251782, CCC1=C(C)C2=CC(C)=CC(CNC3=NC(C)=CC(NC)=N3)=C2N1] yielded an IC50 ([1]; 11-pt dose response, 48hr) of 0.765 µM, a pIC50 [1, 3] of 6.20 and an Emax [1, 4] of 95.7%. The pIC50 [1, 6] was 6.80, the Emax [1, 7] was 98.4% and the IC50 ([2]; NF54, read-out: Stg V Gam dose response IC50 (µM) (n=3), 10-point dose response, n=3, 72 h) was 3.76 µM. The inhibition at 2 µM ([2]; NF54, Table S6, 2uM, n=2, 72 h) was 53.8%, the pIC50 ([2]; NF54, stage V gametocytes, 72 h, read-out: GAM V IC50) was 5.42 and the pIC50 (P. falciparum Dd2; [9]) was 6.16. The Emax (P. falciparum Dd2; [10]) was 98%.
`NCC1CCN(C2CCN(c3ccc(-c4ccco4)cc3)CC2)C1` (stereo not shown) [DDD01252361, NCC1CCN(C1)C1CCN(CC1)C1=CC=C(C=C1)C1=CC=CO1] showed an IC50 ([1]; 11-pt dose response, 48hr) of 3 µM, a pIC50 [1, 3] of 6.40 and an Emax [1, 4] of 95.9%. It also gave an Emax [1, 5] of 98.8%, a pIC50 [1, 6] of 5.74 and an Emax [1, 7] of 100%. The IC50 [2, 8] was 1.9 µM, the inhibition at 2 µM ([2]; NF54, 72 h) was 80.5% and the pIC50 (P. falciparum Dd2; [9]) was 6.22. It also gave an Emax (P. falciparum Dd2; [10]) of 95.1%.
`CCc1ccc(C2c3nc[nH]c3CCN2Cc2nccn2CC)nc1` (stereo not shown) [DDD01254473, CCN1C=CN=C1CN1CCC2=C(NC=N2)C1C1=CC=C(CC)C=N1] showed a pIC50 [1, 11] of 5.81, a pIC50 [1, 12] of 5.92 and an Emax [1, 13] of 91.2%. For the same compound, the pIC50 [1, 14] was 6.35, the Emax [1, 15] was 98.8% and the IC50 [2, 8] was 0.056 µM. It also gave an inhibition at 2 µM ([2]; NF54, 72 h) of 80.6%, a pIC50 (P. falciparum Dd2; [17]) of 5.58 and an Emax (P. falciparum Dd2; [18]) of 78.6%.
`CN(Cc1nccs1)c1nc(-c2ccccn2)nc2c1CCNCC2` [DDD01258014, CN(CC1=NC=CS1)C1=NC(=NC2=C1CCNCC2)C1=CC=CC=N1] gave an IC50 ([1]; 11-pt dose response, 48hr) of 2.11 µM, a pIC50 [1, 3] of 5.96 and an Emax [1, 4] of 89.8%. The Emax [1, 5] was 76.9%, the pIC50 [1, 6] was 6.34 and the Emax [1, 7] was 98%. The pIC50 ([1]; 96 h incubation, Dd2 luciferase, read-out: 96 hour Pfluc IC50) was 6.34, the pIC50 [2, 16] was 5.93 and the IC50 [2, 8] was 1.18 µM. The inhibition at 2 µM ([2]; NF54, 72 h) was 75.5%, the pIC50 (P. falciparum Dd2; [9]) was 5.07 and the Emax (P. falciparum Dd2; [10]) was 68.8%.
